Data on one compound can be found in patent publication US11213522B2, “Autoimmune-induced glutamatergic receptor dysfunction methods and treatments” (SARAH HERZOG MEMORIAL HOSPITAL EZRAT NASHIM ASSOCIATION, priority 2013, dated 2022).

For data set [1], the system named is patient positive for anti-NR1 NMDAR antibodies. As to the kind of experiment: Electroencephalogram (EEG) pre- and post-DSR administration. The format is in vivo, human. The protocol:
The trial consisted of two periods, starting with a 2 week lead-in/stabilization period (−2-0) following which the patient was entered in the second period of the study which consisted of a 6 week (0-6), open-label, fixed dose therapy phase. During this phase, the patient received adjuvant treatment with DSR, whose dose was increased from 1500 mg/day (week 1) to 2000 mg/day (weeks 2 and 3) to 3000 mg/day (weeks 4 and 5) and to 4000 mg/day (week 6). The doses of the ongoing medication received by the patient remained fixed throughout the study and no changes in medication were performed.
The patient underwent prior to entering the study and at study weeks 3 and 6 a medical work-up including complete medical history, and routine clinical blood work, including blood count+differential, lipids, and glucose levels, kidney, thyroid, and liver function parameters, urinalysis, and blood pressure measurements. Abdominal ultrasound was performed prior to study entry and electroencephalogram (EEG) and brain magnetic resonance imaging (MR1) were obtained pre- and post-DSR administration.

Data set [2] shares this test system. The experiment in a line: Quality of Life Scale (QLS), D-serine clinical trial. The format is in vivo, human. The settings on record: for QLS Symptoms/side-effects: week 0 score 15.63; for QLS Motivation/energy: week 0 score 42.86; for QLS Psychosocial: week 0 score 60. The text has this: Out of the seventeen patients that entered the study, the serum of one patient was strongly positive at both serum sample dilutions for the presence of both IgG and IgM classes of anti-NR1 NMDAR antibodies. The patient was a single person having a diagnosis of schizophrenia according to DSM-IV-R criteria (American Psychiatric Association, 2000 Diagnostic and Statistical Manual of Mental Disorders-(DSM-IV-TR), 4th edition. American Psychiatric Association Washington D.C. (Text Revision)). There was no history of mental disorder in the patient's family. The patient had completed post-high school studies and had worked as a secretary. After a period of continuous headaches, for which no organic basis had been found, they had abruptly developed an acute psychosis characterized by grandiose and paranoid delusions, mystical thinking, […] affect and agitation, They had been hospitalized in a psychiatric hospital and underwent treatment with antipsychotic drugs and electroconvulsive therapy with only partial response. The patient had never returned to their previous functional and except for short attempts at living in the community, has been hospitalized ever since. They have been refractory to treatment with various classes of antipsychotic drugs, was not diagnosed with any medical or neurological disorder and was maintained on sulpiride 50 mg/day, citalopram 40 mg/day, lorazepam 1 mg/day and promethazine 50 mg/day. […] DSR is a naturally occurring amino acid that acts in vivo as an obligatory co-agonist at the glycine modulatory site associated with NMDAR. […] Both acute and chronic administration of 1-2 g DSR in humans is known to result in ≥100 times increases in DSR serum levels (Kantrowitz et al., 2010, Schizophr Res121:125-30; Heresco-Levy et al., 2005, Biol Psychiatry 57:577-85). The trial consisted of two periods, starting with a 2 week lead-in/stabilization period (-2-0) following which the patient was entered in the second period of the study which consisted of a 6 week (0-6), open-label, fixed dose therapy phase. During this phase, the patient received adjuvant treatment with DSR, whose dose was increased from 1500 mg/day (week 1) to 2000 mg/day (weeks 2 and 3) to 3000 mg/day (weeks 4 and 5) and to 4000 mg/day (week 6). The doses of the ongoing medication received by the patient remained fixed throughout the study and no changes in medication were performed. The assessment procedures used in the study included clinical and neurocognitive examinations. Motor and psychiatric symptoms as well as side-effects were rated biweekly throughout the study. The following instruments were used: 1) Positive and Negative Syndrome Scale (PANSS) (Kay et al., 1987, Positive and Negative Syndrome Scale (PANSS) rating manual. San Rafael California: Social and Behavioral Sciences Documents); 2) Quality of Life Scale (QLS) (Wilkinson et al., 2000, Self-report quality of life measure for people with schizophrenia: the SQLS. Br J Psychiatry 177:42-6); 3) Abnormal Involuntary Movement Scale (AIMS) (Guy, 1976, ECDEU Assessment Manual for Psychopharmacology-Revised. Rockville, Md.: US Dept. of Health, Education and Welfare); 4) Simpson Angus Scale for Extrapyramidal Symptoms (SAS) (Simpson and Angus, 1970, Acta Psychiatr Scand Suppl. 212:11-9); and 5) Udvalg for […] Undersogelser (UKU) Side Effect Rating Scale (Lingjaerde, et al., 1987 Acta Psychiatr Scand Suppl 334:1-100). In conjunction with UKU ratings, patient's vital signs and body weight were monitored throughout the study.

For data set [3] the following is noted: acute and chronic administration of 1-2 g DSR in humans; cited from earlier work.
The test system of data set [4] is Rodent neuron cell cultures treated with anti-NMDAR antibodies. As to the kind of experiment: Example 3: NMDAR localization in neuron cultures treated with anti-NMDAR antibodies. The format is cell-based. The settings on record: D-Serine 50-200 uM; histological measurements. The protocol: Rodent neuron cell cultures are treated with anti-NMDAR antibodies as described in Hughes E G et al., J Neurosci 2012 30(17):5866-75. […] The determination of receptors localization and other relevant measures is based on histological measurements.
Immunohistochemical methods will be applied to document (a) localization of NMDAR and NR1 and NR2 subunits; (b) loss of oligodendrocytes; (c) changes in astrocytes (S100beta) and microglia (cd11b), (d) expression of neurotrophic factors: brain derived neurotrophic factor (BDNF), nerve growth factor (NGF) and ciliary neurotrophic factor (CNTF); (e) markers of neurogenesis—doublecortin (17) and apoptosis—caspase3 (9). Quantification of histological measurements is based on images in several cortical subregions, striatum, […], hippocampus, and cerebellum.

On to `N[C@H](CO)C(=O)O` [D-serine], for which the “Current latency of EDB over the right frontal area” value in data set [1] (following DSR treatment, t=2.686, df=113, p=0.0083, F8 channel) is recorded as “significant reduction”. Besides, in data set [1] (post- vs pre-DSR administration (six weeks)), the “EEG extreme delta brush (EDB) pattern” value is on record as “attenuation of the EDB pattern”. Further, in data set [1] (post- vs pre-six weeks of D-serine, across all frequency bands), the “EEG coherence between electrodes” value is recorded as “Distinct new patterns of EEG coherence”. The “Quality of life of the patient” value in data set [2] (during treatment with DSR) was “improved considerably”. Also, the “Reduction in reported symptoms and side effects (QLS)” value in data set [2] (end of the 6 week treatment period vs baseline) was about 3 times. Besides, the results for the “QLS Symptoms/side-effects” value in data set [2] (study week 2), in data set [2] (study week 4) and in data set [2] (study week 6) were 9.38, 9.38 and 3.13, respectively. Also, the “QLS Motivation/energy” value in data set [2] (study week 2), in data set [2] (study week 4) and in data set [2] (study week 6) was 42.86 each time. Moreover, the figures for the “QLS Psychosocial” value in data set [2] (study week 2 of adjuvant D-serine), in data set [2] (study week 4 of adjuvant D-serine) and in data set [2] (study week 6 of adjuvant D-serine) were 55, 50 and 38.33, respectively. In data set [3], the “Increase in DSR serum levels” value is at least 100 times. Moreover, the “Effect on NMDAR intracellular localization” value in data set [4] is “reversing receptor intracellular localization”.
